# Assay results: ChEMBL document CHEMBL2016544, “Low brain penetrant CB1 receptor agonists for the treatment of neuropathic pain” (Bioorg Med Chem Lett, 2012)
# Active and inactive are the calls of the source. No cut-off for these calls is given here.
# Experiments:
# [1] = Intrinsic clearance in rat liver microsomes; type: ADME, Microsome; conditions: read-out: CLH
# [2] = Intrinsic clearance in human liver microsomes; type: ADME, Microsome; conditions: read-out: CLH
# Cannabinoid receptor 1 [3] = molecular target: T1, Cannabinoid receptor 1 (Homo sapiens, UniProt P21554); assay: Displacement of [3H]CP 55,940 from human CB1 receptor expressed in insect sf9 membranes; type: cell membranes
# T1 sequence (P21554 whole entry): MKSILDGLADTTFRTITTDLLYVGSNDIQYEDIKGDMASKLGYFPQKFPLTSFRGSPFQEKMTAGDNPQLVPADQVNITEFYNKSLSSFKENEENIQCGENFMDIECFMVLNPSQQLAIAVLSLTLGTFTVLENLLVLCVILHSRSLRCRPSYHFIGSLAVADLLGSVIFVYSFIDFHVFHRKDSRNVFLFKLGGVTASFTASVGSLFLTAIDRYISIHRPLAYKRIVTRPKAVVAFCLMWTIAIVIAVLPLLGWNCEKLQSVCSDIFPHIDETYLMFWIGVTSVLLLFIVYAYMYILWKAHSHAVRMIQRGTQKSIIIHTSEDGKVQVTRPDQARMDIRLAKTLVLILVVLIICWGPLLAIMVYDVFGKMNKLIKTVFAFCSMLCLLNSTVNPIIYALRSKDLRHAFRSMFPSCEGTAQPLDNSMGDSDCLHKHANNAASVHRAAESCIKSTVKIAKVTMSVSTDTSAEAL
# Cannabinoid receptor 2 = Cannabinoid receptor 2 (Homo sapiens, UniProt P34972); assay: Displacement of [3H]CP 55,940 from human CB2 receptor expressed in insect sf9 membranes; type: cell membranes
# Sequence of Cannabinoid receptor 2 (P34972 whole entry): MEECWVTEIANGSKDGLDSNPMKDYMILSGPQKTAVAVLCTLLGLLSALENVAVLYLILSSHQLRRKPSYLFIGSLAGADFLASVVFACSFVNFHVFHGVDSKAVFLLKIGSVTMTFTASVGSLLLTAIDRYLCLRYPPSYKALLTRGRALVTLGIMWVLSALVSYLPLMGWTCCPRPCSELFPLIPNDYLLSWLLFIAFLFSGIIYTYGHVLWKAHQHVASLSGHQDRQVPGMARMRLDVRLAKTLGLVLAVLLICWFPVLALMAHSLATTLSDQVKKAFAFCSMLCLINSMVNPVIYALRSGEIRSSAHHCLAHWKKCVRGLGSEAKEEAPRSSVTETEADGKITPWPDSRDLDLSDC
# [4] = Oral bioavailability in rat; type: ADME, organism-based; conditions: in vivo
# [5] = Ratio of drug level in brain to plasma in mouse; type: ADME, organism-based; conditions: read-out: BPR
# Cannabinoid receptor 1 [6] = molecular target: T1, Cannabinoid receptor 1; assay: Agonist activity at CB1 receptor; type: functional
# [7] = Solubility of the compound at pH 7.4; type: physicochemical; conditions: buffer
# [8] = Intrinsic clearance in mouse liver microsomes; type: ADME, Microsome; conditions: read-out: CLH
# [9] = Intrinsic clearance in dog liver microsomes; type: ADME, Canis lupus familiaris, Microsome; conditions: read-out: CLH
# [10] = Intrinsic clearance in rabbit liver microsomes; type: ADME, Oryctolagus cuniculus, Microsome; conditions: read-out: CLH
# [11] = Intrinsic clearance in human hepatocytes assessed per million cells; type: ADME, cell-based, Hepatocyte; conditions: read-out: CLH
# [12] = Plasma protein binding in human; type: ADME, cell-free; conditions: read-out: PPB (converted)
# [13] = Plasma protein binding in rat; type: ADME, cell-free; conditions: read-out: PPB (converted)
# [14] = Plasma protein binding in mouse; type: ADME, cell-free; conditions: read-out: PPB (converted)
# [15] = Plasma protein binding in dog; type: ADME, cell-free, Canis lupus familiaris; conditions: read-out: PPB (converted)
# [16] = Plasma protein binding in rabbit; type: ADME, cell-free, Oryctolagus cuniculus; conditions: read-out: PPB (converted)
# [17] = Apparent permeability across human Caco2 cells; type: ADME, cell-based; conditions: Caco-2
# [18] = Efflux ratio of apparent permeability from basolateral to apical side over apical to basolateral side in human Caco2 cells; type: ADME, cell-based; conditions: Caco-2
# [19] = Cmax in mouse plasma at 3 umol/kg, iv; type: ADME, organism-based; parameters: dose 3 umol/kg, route intravenous
# [20] = Cmax in mouse brain at 3 umol/kg, iv; type: ADME, organism-based; parameters: dose 3 umol/kg, route intravenous
# [21] = Ratio of Cmax in mouse brain to Cmax in mouse plasma at 3 umol/kg, iv; type: ADME
# [22] = Ratio of AUC in mouse brain to AUC in mouse plasma at 3 umol/kg, iv; type: ADME; conditions: read-out: Ratio AUC
# [23] = Clearance in rat at 2 mg/kg, iv; type: ADME, organism-based; parameters: dose 2 mg/kg, route intravenous; conditions: in vivo
# [24] = Volume of distribution at steady state in rat at 2 mg/kg, iv; type: ADME, organism-based; parameters: dose 2 mg/kg, route intravenous; conditions: in vivo, read-out: Vdss
# [25] = Half life in rat at 2 mg/kg, iv; type: ADME, organism-based; parameters: dose 2 mg/kg, route intravenous; conditions: in vivo
# [26] = Oral bioavailability in rat at 10 mg/kg; type: ADME, organism-based; conditions: in vivo
# [27] = Cmax in Wistar BRL rat plasma at 24 mg/kg, po by LC-MS/MS analysis; type: ADME, organism-based; parameters: dose 24 mg/kg, route oral
# [28] = Cmax in Wistar BRL rat brain at 24 mg/kg, po by LC-MS/MS analysis; type: ADME, organism-based; parameters: dose 24 mg/kg, route oral
# [29] = Cmax in Wistar BRL rat CSF at 24 mg/kg, po by LC-MS/MS analysis; type: ADME, organism-based, Cerebrospinal fluid; parameters: dose 24 mg/kg, route oral
# [30] = Ratio of Cmax in brain to plasma of Wistar BRL rat at 24 mg/kg, po by LC-MS/MS analysis; type: ADME, organism-based; parameters: dose 24 mg/kg, route oral
# [31] = Ratio of AUC in brain to plasma of Wistar BRL rat at 24 mg/kg, po by LC-MS/MS analysis; type: ADME, organism-based; parameters: dose 24 mg/kg, route oral; conditions: read-out: Ratio AUC
# [32] = Ratio of Cmax in CSF to free plasma of Wistar BRL rat at 24 mg/kg, po by LC-MS/MS analysis; type: ADME, organism-based; parameters: dose 24 mg/kg, route oral; conditions: in vivo
# [33] = Ratio of AUC in CSF to free plasma of Wistar BRL rat at 24 mg/kg, po by LC-MS/MS analysis; type: ADME, organism-based; parameters: dose 24 mg/kg, route oral; conditions: in vivo
# [34] = molecular target: Voltage-gated inwardly rectifying potassium channel KCNH2 (Homo sapiens, UniProt Q12809); assay: Displacement of [3H]dofetilide from human ERG
# Sequence of Voltage-gated inwardly rectifying potassium channel KCNH2 (Q12809 whole entry): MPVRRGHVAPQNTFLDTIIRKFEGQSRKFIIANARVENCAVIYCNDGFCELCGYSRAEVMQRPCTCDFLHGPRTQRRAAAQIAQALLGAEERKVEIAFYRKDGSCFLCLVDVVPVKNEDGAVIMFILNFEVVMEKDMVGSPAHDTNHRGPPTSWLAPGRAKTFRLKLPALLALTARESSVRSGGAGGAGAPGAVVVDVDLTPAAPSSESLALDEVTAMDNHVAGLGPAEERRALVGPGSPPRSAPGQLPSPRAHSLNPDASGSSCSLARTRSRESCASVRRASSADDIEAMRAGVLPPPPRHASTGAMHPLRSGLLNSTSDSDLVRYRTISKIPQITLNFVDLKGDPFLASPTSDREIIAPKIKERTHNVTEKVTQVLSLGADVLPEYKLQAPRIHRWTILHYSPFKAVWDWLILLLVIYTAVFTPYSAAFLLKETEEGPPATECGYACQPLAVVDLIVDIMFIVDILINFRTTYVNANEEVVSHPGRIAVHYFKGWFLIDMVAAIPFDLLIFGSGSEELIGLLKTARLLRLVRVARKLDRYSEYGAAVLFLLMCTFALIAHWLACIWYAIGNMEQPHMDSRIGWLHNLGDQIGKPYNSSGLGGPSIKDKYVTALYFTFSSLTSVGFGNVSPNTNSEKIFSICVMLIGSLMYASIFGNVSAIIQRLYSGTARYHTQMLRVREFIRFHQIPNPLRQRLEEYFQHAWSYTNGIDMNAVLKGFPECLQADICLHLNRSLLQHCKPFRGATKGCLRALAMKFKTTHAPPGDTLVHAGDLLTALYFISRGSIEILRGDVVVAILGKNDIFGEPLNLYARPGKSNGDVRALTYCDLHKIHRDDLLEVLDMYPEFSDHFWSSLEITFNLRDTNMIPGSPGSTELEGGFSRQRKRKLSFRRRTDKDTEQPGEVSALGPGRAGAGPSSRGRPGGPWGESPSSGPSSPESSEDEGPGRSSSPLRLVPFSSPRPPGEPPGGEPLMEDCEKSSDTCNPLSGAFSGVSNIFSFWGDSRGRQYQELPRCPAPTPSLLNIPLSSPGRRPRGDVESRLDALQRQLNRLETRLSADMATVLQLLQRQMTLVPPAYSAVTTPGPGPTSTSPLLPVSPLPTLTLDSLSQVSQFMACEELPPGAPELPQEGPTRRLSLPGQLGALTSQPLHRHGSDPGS
# Rattus norvegicus [35] = assay: Analgesic activity in po dosed rat Chung Hargreaves model of neuropathic pain assessed as inhibition of thermal hyperalgesia; type: functional
# Rattus norvegicus [36] = assay: Analgesic activity in po dosed rat Chung von Frey model of neuropathic pain assessed as anti-allodynic effect against mechanical stimulus; type: functional
# Rattus norvegicus [37] = assay: Analgesic activity in po dosed rat Chung von Frey model of neuropathic pain assessed as anti-allodynic effect against mechanical stimulus in presence of CB1 receptor antagonist rimonabant; type: functional, organism-based
# Rattus norvegicus [38] = assay: Toxicity in po dosed rat assessed as catalepsy by ring immobility test; type: organism-based; conditions: in vivo
# Rattus norvegicus [39] = assay: Ratio of MED for toxicity in […] to ED50 for anti-allodynic activity in po dosed rat Chung von Frey model of neuropathic pain; type: functional
# [40] = Intrinsic clearance in rat hepatocytes assessed per million cells; type: ADME, cell-based, Hepatocyte; conditions: read-out: CLH
# Rattus norvegicus [41] = assay: Analgesic activity in sc dosed rat Chung von Frey model of neuropathic pain assessed as anti-allodynic effect against mechanical stimulus; type: functional
# Rattus norvegicus [42] = assay: Toxicity in sc dosed rat assessed as catalepsy by ring immobility test; type: organism-based; conditions: in vivo
# Rattus norvegicus [43] = assay: Ratio of MED for toxicity in sc dosed rat assessed as catalepsy to ED50 for anti-allodynic activity in sc dosed rat Chung von Frey model of neuropathic pain; type: functional
smiles,measurement,setting,value
O=C(NCCO)C1CCN(Cc2nc(-c3cn(CC4CCOCC4)c4c(Cl)cccc34)no2)CC1,microsomal CLint,[1],18 µL/min/mg
same,microsomal CLint,[2],16 µL/min/mg
same,Ki,Cannabinoid receptor 1 [3],3.98 nM
same,Ki,Cannabinoid receptor 2,20 nM
same,bioavailability,[4],8%
same,Kp,[5],0.03
NC(=O)CN1CCN(Cc2nc(-c3cn(CC4CCOCC4)c4c(Cl)cccc34)ns2)CC1,EC50,Cannabinoid receptor 1 [6],63.1 nM
same,microsomal CLint,[1],23 µL/min/mg
same,microsomal CLint,[2],23 µL/min/mg
COc1cccc2c(-c3noc(CN4CCC(C(=O)NCCO)CC4)n3)cn(CC3CCOCC3)c12,EC50,Cannabinoid receptor 1 [6],631 nM
CN(CC(N)=O)Cc1nc(-c2cn(CC3CCOCC3)c3c(Cl)cccc23)ns1,EC50,Cannabinoid receptor 1 [6],631 nM
O=C(NCCO)[C@H]1CCCN(Cc2nc(-c3cn(CC4CCS(=O)(=O)CC4)c4c(Cl)cccc34)ns2)C1,EC50,Cannabinoid receptor 1 [6],20 nM
same,microsomal CLint,[1],32 µL/min/mg
same,microsomal CLint,[2],47 µL/min/mg
same,Ki,Cannabinoid receptor 1 [3],31.6 nM
same,Ki,Cannabinoid receptor 2,20 nM
same,solubility,[7],45 µg/mL
same,bioavailability,[4],1%
same,Kp,[5],0.03
CN(CC(N)=O)Cc1nc(-c2cn(CC3CCS(=O)(=O)CC3)c3c(Cl)cccc23)ns1,EC50,Cannabinoid receptor 1 [6],158 nM
same,microsomal CLint,[1],52 µL/min/mg
same,microsomal CLint,[2],25 µL/min/mg
O=C(NCCO)C1CCN(Cc2nc(-c3cn(CC4CCS(=O)(=O)CC4)c4c(Cl)cccc34)no2)CC1,EC50,Cannabinoid receptor 1 [6],1000 nM
same,microsomal CLint,[1],< 12 µL/min/mg
same,microsomal CLint,[2],< 12 µL/min/mg
CN(CC(N)=O)Cc1nc(-c2cn(CC3CCS(=O)(=O)CC3)c3c(Cl)cccc23)no1,EC50,Cannabinoid receptor 1 [6],158 nM
same,microsomal CLint,[1],33 µL/min/mg
same,microsomal CLint,[2],26 µL/min/mg
O=C(NCCO)C1CCN(Cc2nc(-c3cn(CC4CCOCC4)c4c(Cl)cccc34)ns2)CC1,EC50,Cannabinoid receptor 1 [6],79.4 nM
same,microsomal CLint,[1],49 µL/min/mg
same,microsomal CLint,[2],18 µL/min/mg
COc1cccc2c(-c3nsc(CN4CCC(C(=O)NCCO)CC4)n3)cn(CC3CCOCC3)c12,EC50,Cannabinoid receptor 1 [6],31.6 nM
same,microsomal CLint,[1],33 µL/min/mg
same,microsomal CLint,[2],19 µL/min/mg
NC(=O)CN1CCN(Cc2nc(-c3cn(CC4CCS(=O)(=O)CC4)c4c(Cl)cccc34)no2)CC1,EC50,Cannabinoid receptor 1 [6],501 nM
same,microsomal CLint,[1],48 µL/min/mg
same,microsomal CLint,[2],< 12 µL/min/mg
COc1cccc2c(-c3nsc(CN(C)CC(N)=O)n3)cn(CC3CCOCC3)c12,EC50,Cannabinoid receptor 1 [6],1260 nM
COc1cccc2c(-c3nsc(CN4CCN(CC(N)=O)CC4)n3)cn(CC3CCOCC3)c12,EC50,Cannabinoid receptor 1 [6],79.4 nM
same,microsomal CLint,[1],17 µL/min/mg
same,microsomal CLint,[2],17 µL/min/mg
same,Ki,Cannabinoid receptor 1 [3],6.31 nM
same,Ki,Cannabinoid receptor 2,15.8 nM
same,solubility,[7],5 µg/mL
same,bioavailability,[4],40%
same,Kp,[5],0.18
CN(CC(=O)NCCO)Cc1nc(-c2cn(CC3CCOCC3)c3c(Cl)cccc23)no1,microsomal CLint,[1],49 µL/min/mg
same,microsomal CLint,[2],66 µL/min/mg
NC(=O)CN1CCN(Cc2nc(-c3cn(CC4CCS(=O)(=O)CC4)c4c(Cl)cccc34)ns2)CC1,pEC50,Cannabinoid receptor 1 [6],6.7
same,microsomal CLint,[1],< 12 µL/min/mg
same,microsomal CLint,[2],< 12 µL/min/mg
NC(=O)CN1CCN(Cc2nc(-c3cn(CC4CCOCC4)c4c(Cl)cccc34)no2)CC1,microsomal CLint,[1],< 12 µL/min/mg
same,microsomal CLint,[2],12 µL/min/mg
same,Ki,Cannabinoid receptor 1 [3],20 nM
same,Ki,Cannabinoid receptor 2,50.1 nM
same,solubility,[7],89 µg/mL
same,bioavailability,[4],45%
same,Kp,[5],0.16
same,microsomal CLint,[8],< 12 µL/min/mg
same,microsomal CLint,[9],13 µL/min/mg
same,microsomal CLint,[10],< 12 µL/min/mg
same,hepatocyte CLint,[11],3 µL/min/1e6 cells
same,fraction unbound,[12],0.04
same,fraction unbound,[13],0.039
same,fraction unbound,[14],0.034
same,fraction unbound,[15],0.063
same,fraction unbound,[16],0.037
same,Papp,[17],6.2 ×10⁻⁶ cm/s
same,efflux ratio,[18],1.5
same,Cmax,[19],814 ng/mL
same,Cmax,[20],134 ng/g
same,Kp,[21],0.16
same,Kp,[22],0.16
same,clearance,[23],9.5 mL/min/kg
same,Vd,[24],2.6 L/kg
same,half-life,[25],3.8 h
same,bioavailability,[26],45%
same,Cmax,[27],722 ng/mL
same,Cmax,[28],148 ng/g
same,Cmax,[29],6.4 ng/mL
same,Kp,[30],0.2
same,Kp,[31],0.22
same,Ratio,[32],0.23
same,Ratio AUC,[33],0.21
same,Ki,[34],20000 nM
same,ED50,Rattus norvegicus [35],2.5 µmol/kg
same,ED50,Rattus norvegicus [36],17 µmol/kg
same,Activity,Rattus norvegicus [37],inactive
same,MED,Rattus norvegicus [38],> 160 µmol/kg
same,Ratio,Rattus norvegicus [39],>9.3
same,hepatocyte CLint,[40],7 µL/min/1e6 cells
CN(CC(N)=O)Cc1nc(-c2cn(CC3CCOCC3)c3c(Cl)cccc23)no1.Cl,microsomal CLint,[1],43 µL/min/mg
same,microsomal CLint,[2],36 µL/min/mg
same,Kp,[5],0.9
COc1cccc2c(-c3noc(CN(C)CC(N)=O)n3)cn(CC3CCOCC3)c12,EC50,Cannabinoid receptor 1 [6],2510 nM
Cc1c(C(=O)c2cccc3ccccc23)c2cccc3c2n1[C@H](CN1CCOCC1)CO3 [WIN-552122],bioavailability,[4],0%
same,Kp,[5],1.3
same,ED50,Rattus norvegicus [41],1.6 µmol/kg
same,MED,Rattus norvegicus [42],5.7 µmol/kg
same,Ratio,Rattus norvegicus [43],3.7
